Assay results taken from ChEMBL document CHEMBL1125922, “Peptide leukotrienes: current status of research” (J Med Chem, 1991).

What was measured:
Cavia porcellus [1] = species on record: Cavia porcellus; test: (§1) Antagonistic activity against LTD4 induced contraction in guinea pig trachea; type: functional
Cavia porcellus [2] = species on record: Cavia porcellus; test: as §1; type: functional, organism-based; conditions: for Kb: read-out: pA2 (converted)
[3] = target: T1, Cysteinyl leukotriene receptor 1 (Cavia porcellus, UniProt Q2NNR5); test: Compound was evaluated for its ability to displace [3H]LTD4 from LTD4 receptor in guinea pig lung membranes; type: cell membranes, Membrane
T1 sequence (Q2NNR5 whole entry): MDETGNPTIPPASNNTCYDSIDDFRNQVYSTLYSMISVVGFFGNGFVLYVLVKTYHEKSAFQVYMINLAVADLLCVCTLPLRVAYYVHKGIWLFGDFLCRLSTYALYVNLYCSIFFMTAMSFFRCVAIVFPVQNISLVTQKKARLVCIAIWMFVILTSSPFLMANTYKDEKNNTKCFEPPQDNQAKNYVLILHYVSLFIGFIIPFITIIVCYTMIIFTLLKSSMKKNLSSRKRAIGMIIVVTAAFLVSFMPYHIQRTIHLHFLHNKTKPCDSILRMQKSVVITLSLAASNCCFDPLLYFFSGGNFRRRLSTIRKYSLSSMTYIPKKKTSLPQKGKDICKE

Homo sapiens = species on record: Homo sapiens; test: Antagonistic activity against LTD4 induced contraction in human bronchus; type: functional
[4] = target: T1, Cysteinyl leukotriene receptor 1; test: Compound was evaluated for its ability to displace [3H]LTD4 from Cysteinyl leukotriene D4 receptor in guinea pig lung membranes; type: cell membranes, Membrane
Cavia porcellus [5] = species on record: Cavia porcellus; test: Antagonistic activity against LTD4 induced contraction in guinea pig lung parenchymal strips; type: functional; conditions: Lung parenchyma, read-out: pA2 (converted)
Cavia porcellus [6] = species on record: Cavia porcellus; test: Antagonistic activity against LTD4 induced contraction in guinea pig ileum; type: functional

Compound `O=S(=O)(Nc1cccc(OCc2ccc3ccccc3n2)c1)C(F)(F)F` [RITOLUKAST] has a pKB (Cavia porcellus [1]) of 7.8.

For `CCCc1c(OCCCSc2nnc(SCC(=O)O)s2)ccc(C(C)=O)c1O` [YM-16638], the IC50 (Cavia porcellus [2]) was 160 nM.

In the case of `CCCc1c(OCCCCc2nnn[nH]2)ccc(C(C)=O)c1O` [TOMELUKAST], the Ki [3] is reported as […] and the pKB (Cavia porcellus [1]) is reported as 6.9.

`CCCCCCCCC/C=C\C=C\[C@@H](SCCC(=O)O)[C@@H](O)c1cccc(-c2nnn[nH]2)c1` showed a Kb (Cavia porcellus [2]) of 7.94 nM.

In the case of `CCC(CC)(CC(=O)Nc1cccc(/C=C/c2nc(C3CCC3)cs2)c1)C(=O)O`, the pKB (Homo sapiens) is reported as 9.3.

In the case of `CCCc1c(OCCCCc2nnn(CCCCc3nnn[nH]3)n2)ccc(C(C)=O)c1O` [LY-203647], the pKB (Cavia porcellus [1]) is reported as 6.4.

Compound `CCCc1c(OCC(O)COc2ccc3c(=O)cc(C(=O)O)oc3c2CCC)ccc(C(C)=O)c1O` (stereo unspecified) [FPL-55712] has a Kb (Cavia porcellus [2]) of 200 nM.

`CCCc1c(COc2ccc(Cc3nnn[nH]3)cc2)ccc(C(C)=O)c1O` [LY-163443] gave a pKB (Cavia porcellus [1]) of 7.5.

In the case of `CCCc1c(OCCCOc2cc(NC(=O)c3nn[nH]n3)c(C)cc2Cl)ccc(C(C)=O)c1O` [CGP-35949], the Kb (Cavia porcellus [2]) is reported as 39.8 nM.

`O=C(O)CCS[C@H](c1ccccc1CCCCCCCCc1ccccc1)[C@@H](O)C(=O)O` [POBILUKAST] showed a Kb (Cavia porcellus [2]) of 2.51 nM.

Work on `COc1cc(C(=O)NS(=O)(=O)c2ccccc2C)ccc1Cc1cn(C)c2ccc(NC(=O)OC3CCCC3)cc12` [ZAFIRLUKAST] yielded a pKB (Cavia porcellus [1]) of 9.5.

In the case of `O=C(O)CCS[C@@H](CC(=O)O)c1ccccc1CCCCCCCCc1ccccc1`, the Ki [4] is reported as 60 nM and the pKB (Cavia porcellus [1]) is reported as 7.6.

In the case of `CCCc1c(OCCCSc2ccc([C@@H](O)[C@H](C)CC(=O)O)cc2)ccc(C(C)=O)c1O` [L-649923], the Kb (Cavia porcellus [2]) is reported as 63.1 nM and the Ki [3] is reported as 400 nM.

In the case of `c1ccc(Cc2nn[nH]n2)c(COc2ccc(OCc3ccc4ccccc4n3)cc2)c1` [RG-12525], the Kb (Cavia porcellus [5]) is reported as 3.98 nM.

In the case of `COc1cc(C(=O)NS(=O)(=O)c2ccccc2)ccc1Cn1ncc2ccc(NC(=O)OC3CCCC3)cc21` [ICI-198615], the Kb (Cavia porcellus [2]) is reported as 0.0794 nM and the Ki [3] is reported as 0.3 nM.

With `CN(C)C(=O)CCSC(SCCC(=O)O)c1cccc(/C=C/c2ccc3ccc(Cl)cc3n2)c1` (stereo unspecified) [MK-571] the Ki [4] was 0.2 nM and the pKB (Cavia porcellus [1]) was 9.3.

Work on `O=C(Nc1cccc2c(=O)cc(-c3nnn[nH]3)oc12)c1ccc(OCCCCc2ccccc2)cc1` yielded a pKB (Cavia porcellus [1]) of 7.5.

`CCCc1c(OCCCS(=O)(=O)c2ccc(C(=O)CCC(=O)O)cc2)ccc(C(C)=O)c1O` [L-648051] was tested, and the Kb (Cavia porcellus [2]) was 50.1 nM.

`CCCCC/C=C/C\C=C/C=C/C=C/[C@@H](Sc1ccc2c(=O)cc(C(=O)O)oc2c1)[C@H](O)CCCC(=O)O` was tested, and the IC50 [4] was 100 nM.

`O=C(O)c1ccccc1Nc1cccc(OCc2ccc3ccccc3n2)c1` [SR-2640] gave a pKB (Cavia porcellus [1]) of 8.7.

For `CCCc1c(OCCCOc2ccc3c(c2CCC)OC(C)(CCC(=O)O)CC3=O)ccc(C(C)=O)c1O` (stereo unspecified) [SC-39070], the pKB (Cavia porcellus [6]) was 8.2.
